Strand notation (5' to 3'): a small letter for the sugar, then the base; units joined by * are phosphorothioate-linked, units joined directly phosphodiester-linked; [ ] holds rarer units or linkages, { } end groups; capitals alone tell only the bases. e = 2'-O-(2-methoxyethyl) (MOE); [5mC] = 5-methylcytosine; d = 2'-deoxy (DNA)
Key:
[1] = system: human Factor 11 mRNA; assay: Antisense inhibition of human Factor 11 in HepG2 cells, lipofectin, 75 nM (Example 1); assay type: cell-based; conditions: 75 nM antisense oligonucleotide, ~24 h, relative to untreated control cells, gapmers targeted to SEQ ID NO: 1
Summary of the method: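 HepG2 cells transfected via lipofectin with 75 nM antisense oligonucleotide (5-10-5 MOE gapmers, 20-mers, phosphorothioate, 5-methylcytidines), treated ~24 h. Factor 11 mRNA quantified by real-time PCR, normalised to RIBOGREEN total RNA; percent inhibition versus untreated cells.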

[2] = system: human Factor 11 mRNA; assay: Dose-dependent antisense inhibition of human Factor 11 in HepG2 cells, lipofectin 9.375-150 nM (Example 2); assay type: cell-based; conditions: ~16 h
Protocol: Cells were plated at a density of 10,000 cells per well and transfected using lipofectin reagent with 9.375 nM, 18.75 nM, 37.5 nM, 75 nM, and 150 nM concentrations of antisense oligonucleotide, as specified in Table 3. After a treatment period of approximately 16 hours, RNA was isolated from the cells and Factor 11 mRNA levels were measured by quantitative real-time PCR. Human Factor 11 primer probe set RTS 2966 (forward sequence: […], incorporated herein as SEQ ID NO: 3; reverse sequence: […], incorporated herein as SEQ ID NO: 4; probe sequence: TTGTCTACTGAAGCACACCCAAACAGGGAX, incorporated herein as SEQ ID NO: 5) was used to measure mRNA levels. Factor 11 mRNA levels were adjusted according to total RNA content, as measured by RIBOGREEN. Results are presented as percent inhibition of Factor 11, relative to untreated control cells.

[3] = system: human Factor 11 mRNA; assay: Antisense inhibition of human Factor 11 in HepG2 cells by microwalk gapmers, lipofectin, 75 nM (Example 3); assay type: cell-based
Summary of the method: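 HepG2 cells (10,000/well) were transfected via lipofectin with 75 nM 20-mer MOE gapmers (phosphorothioate, 5-methyl-C) for about 24 h. Factor 11 mRNA was measured by qRT-PCR, normalized to RIBOGREEN total RNA, and given as percent inhibition versus untreated cells.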

[4] = system: human Factor 11 mRNA; assay: Dose-dependent inhibition of human Factor 11 in HepG2 cells, lipofectin 9.375-75 nM (Example 4); assay type: cell-based; conditions: for percent inhibition of Factor 11 at 9.375 nM / percent inhibition of Factor 11 at 18.75 nM / percent inhibition of Factor 11 at 37.5 nM / percent inhibition of Factor 11 at 75 nM: relative to untreated control cells
Summary of the method: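 HepG2 cells transfected via lipofectin with antisense oligonucleotide at 9.375, 18.75, 37.5 or 75 nM for about 16 h. Factor 11 mRNA quantified by real-time RT-PCR (primer probe set RTS 2966) and normalized to total RNA (RIBOGREEN). Results expressed as percent inhibition versus untreated cells.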

[5] = system: human Factor 11 mRNA; assay: Dose-dependent inhibition of human Factor 11 in HepG2 cells, electroporation 0.7-20 uM (Example 4); assay type: cell-based; conditions: for percent inhibition of Factor 11 at 0.7 μM / percent inhibition of Factor 11 at 2.2 μM / percent inhibition of Factor 11 at 6.7 μM / percent inhibition of Factor 11 at 20 μM: relative to untreated control cells
Summary of the method: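 HepG2 cells electroporated with antisense gapmers at 0.7, 2.2, 6.7 and 20 μM, treated ~16 h. Factor 11 mRNA quantified by qRT-PCR (primer probe set RTS 2966), normalised to RIBOGREEN total RNA; expressed as percent inhibition versus untreated control cells.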

[6] = system: human Factor 11 mRNA; assay: Antisense inhibition of human Factor 11 in HepG2 cells, electroporation, 8,000 nM (Example 30); assay type: cell-based; conditions: electroporation, 8,000 nM antisense oligonucleotide
Summary of the method: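 HepG2 cells electroporated with 8,000 nM 5-10-5, 5-8-5 or 6-8-6 MOE gapmers (phosphorothioate, 5-methylcytidine), ~24 h. Factor 11 mRNA quantified by qRT-PCR, normalised to RIBOGREEN total RNA. Reported as percent inhibition versus untreated cells.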

[7] = system: human Factor 11 mRNA; assay: Dose-dependent inhibition of human Factor 11 in HepG2 cells, electroporation 123.46-10,000 nM (Example 31); assay type: cell-based; conditions: for Percent inhibition of Factor 11 mRNA at 123.47 nM / Percent inhibition of Factor 11 mRNA at 370.37 nM / IC50: electroporation; for Percent inhibition of Factor 11 mRNA at 123.47 nM / Percent inhibition of Factor 11 mRNA at 370.37 nM / Percent inhibition of Factor 11 mRNA at 1,111.11 nM / Percent inhibition of Factor 11 mRNA at 3,333.33 nM / Percent inhibition of Factor 11 mRNA at 10,000.0 nM: approx. 16 hours, relative to untreated control cells; for Percent inhibition of Factor 11 mRNA at 1,111.11 nM: electroporation, 1,111.11 nM; for Percent inhibition of Factor 11 mRNA at 3,333.33 nM: electroporation, 3,333.33 nM; for Percent inhibition of Factor 11 mRNA at 10,000.0 nM: electroporation, 10,000.0 nM; for IC50: Factor 11 mRNA expression
Protocol: Cells were plated at a density of 20,000 cells per well and transfected using electroporation with 123.46 nM, 370.37 nM, 1,111.11 nM, 3,333.33 nM and 10,000 nM concentrations of antisense oligonucleotide, as specified in Table 45. After a treatment period of approximately 16 hours, RNA was isolated from the cells and Factor 11 mRNA levels were measured by quantitative real-time PCR. Human Factor 11 primer probe set RTS 2966 was used to measure mRNA levels. Factor 11 mRNA levels were adjusted according to total RNA content, as measured by RIBOGREEN. Results are presented as percent inhibition of Factor 11, relative to untreated control cells.

[8] = Viscosity of ISIS antisense oligonucleotides, micro-viscometer at 25 °C (Example 47); assay type: physicochemical; conditions: for Concentration: concentration of the viscosity sample, UV reading at 260 nM at 85° C.; for Viscosity: in water, micro-viscometer at 25° C., at the concentration of the same line
Protocol: The viscosity of antisense oligonucleotides targeting human Factor 11 was measured with the aim of screening out antisense oligonucleotides which have a viscosity more than 40 cP at a concentration of 165-185 mg/mL.
ISIS oligonucleotides (32-35 mg) were weighed into a glass vial, 120 μL of water was added and the antisense oligonucleotide was dissolved into solution by heating the vial at 50° C. Part of (75 μL) the pre-heated sample was pipetted to a micro-viscometer (Cambridge). The temperature of the micro-viscometter was set to 25° C. and the viscosity of the sample was measured. Another part (20 μL) of the pre-heated sample was pipetted into 10 mL of water for UV reading at 260 nM at 85° C. (Cary UV instrument).

[9] = mouse, in vivo, sc, 50 mg/kg

## 413467 (antisense eG*eG*eT*e[5mC]*e[5mC]*dA*d[5mC]*dA*dT*dA*dA*dA*dT*dG*dT*e[5mC]*eT*eT*eT*eG) [compound 413467]
[1]
  % inhibition: 91%
[2]
  percent inhibition of Factor 11 at 9.375 nM: 2%
  percent inhibition of Factor 11 at 18.75 nM: 35%
  percent inhibition of Factor 11 at 37.5 nM: 49%
  percent inhibition of Factor 11 at 75 nM: 61%
  percent inhibition of Factor 11 at 150 nM: 47%
  IC50: 43 nM
[3]; HepG2, lipofectin, ~24 h, gapmers targeted to nucleobases 656 to 704 of SEQ ID NO: 1
  % inhibition: 92%
[4]
  IC50: 20 nM
  percent inhibition of Factor 11 at 9.375 nM: 35%
  percent inhibition of Factor 11 at 18.75 nM: 51%
  percent inhibition of Factor 11 at 37.5 nM: 62%
  percent inhibition of Factor 11 at 75 nM: 69%
[5]
  IC50: 4200 nM
  percent inhibition of Factor 11 at 0.7 μM: 5%
  percent inhibition of Factor 11 at 2.2 μM: 31%
  percent inhibition of Factor 11 at 6.7 μM: 65%
  percent inhibition of Factor 11 at 20 μM: 89%

## 413476 (antisense eT*eT*eG*eA*eG*dA*dT*dT*d[5mC]*dT*dT*dT*dG*dG*dG*e[5mC]*e[5mC]*eA*eT*eT) [compound 413476]
[1]
  % inhibition: 88%
[2]
  percent inhibition of Factor 11 at 9.375 nM: 26%
  percent inhibition of Factor 11 at 18.75 nM: 44%
  percent inhibition of Factor 11 at 37.5 nM: 64%
  percent inhibition of Factor 11 at 75 nM: 73%
  percent inhibition of Factor 11 at 150 nM: 82%
  IC50: 25 nM
[3]; HepG2 cells, lipofectin, gapmers targeted to nucleobases 1062 to 1091 of SEQ ID NO: 1
  % inhibition: 93%
[4]
  IC50: 21 nM
  percent inhibition of Factor 11 at 9.375 nM: 24%
  percent inhibition of Factor 11 at 18.75 nM: 58%
  percent inhibition of Factor 11 at 37.5 nM: 62%
  percent inhibition of Factor 11 at 75 nM: 77%
[5]
  IC50: 900 nM
  percent inhibition of Factor 11 at 0.7 μM: 40%
  percent inhibition of Factor 11 at 2.2 μM: 69%
  percent inhibition of Factor 11 at 6.7 μM: 88%
  percent inhibition of Factor 11 at 20 μM: 93%

## 445498 (antisense eG*eG*eT*eG*e[5mC]*eA*d[5mC]*dA*dG*dT*dT*dT*d[5mC]*dT*eG*eG*e[5mC]*eA*eG*eG) [compound 445498]
[6]
  Percent inhibition of human Factor 11 mRNA levels: 83%
[7]
  Percent inhibition of Factor 11 mRNA at 123.47 nM: 3%
  Percent inhibition of Factor 11 mRNA at 370.37 nM: 1%
  Percent inhibition of Factor 11 mRNA at 1,111.11 nM: 27%
  Percent inhibition of Factor 11 mRNA at 3,333.33 nM: 50%
  Percent inhibition of Factor 11 mRNA at 10,000.0 nM: 58%
  IC50: 4800 nM
[8]
  Concentration: 157 mg/mL
  Viscosity: 21 cP

## 445504 (antisense eG*eG*e[5mC]*eA*eT*eT*dG*dG*dT*dG*d[5mC]*dA*d[5mC]*dA*eG*eT*eT*eT*e[5mC]*eT) [compound 445504]
[6]
  Percent inhibition of human Factor 11 mRNA levels: 87%
[7]
  Percent inhibition of Factor 11 mRNA at 123.47 nM: 8%
  Percent inhibition of Factor 11 mRNA at 370.37 nM: 20%
  Percent inhibition of Factor 11 mRNA at 1,111.11 nM: 38%
  Percent inhibition of Factor 11 mRNA at 3,333.33 nM: 53%
  Percent inhibition of Factor 11 mRNA at 10,000.0 nM: 68%
  IC50: 2700 nM
[8]
  Concentration: 139 mg/mL
  Viscosity: 20 cP

## 445505 (antisense e[5mC]*eG*eG*e[5mC]*eA*eT*dT*dG*dG*dT*dG*d[5mC]*dA*d[5mC]*eA*eG*eT*eT*eT*e[5mC]) [compound 445505]
[6]
  Percent inhibition of human Factor 11 mRNA levels: 89%
[7]
  Percent inhibition of Factor 11 mRNA at 123.47 nM: 12%
  Percent inhibition of Factor 11 mRNA at 370.37 nM: 30%
  Percent inhibition of Factor 11 mRNA at 1,111.11 nM: 39%
  Percent inhibition of Factor 11 mRNA at 3,333.33 nM: 59%
  Percent inhibition of Factor 11 mRNA at 10,000.0 nM: 77%
  IC50: 1800 nM
[8]
  Concentration: 155 mg/mL
  Viscosity: 9 cP

## 445509 (antisense e[5mC]*eG*eG*eA*e[5mC]*eG*dG*d[5mC]*dA*dT*dT*dG*dG*dT*eG*e[5mC]*eA*e[5mC]*eA*eG) [compound 445509]
[6]
  Percent inhibition of human Factor 11 mRNA levels: 84%
[8]
  Concentration: 167 mg/mL
  Viscosity: >100 cP

## 445513 (antisense eG*e[5mC]*eA*eG*e[5mC]*eG*dG*dA*d[5mC]*dG*dG*d[5mC]*dA*dT*eT*eG*eG*eT*eG*e[5mC]) [compound 445513]
[6]
  Percent inhibition of human Factor 11 mRNA levels: 85%
[8]
  Concentration: 167 mg/mL
  Viscosity: 34 cP

## 445530 (antisense eG*e[5mC]*eA*eT*eT*dG*dG*dT*dG*d[5mC]*dA*d[5mC]*dA*eG*eT*eT*eT*e[5mC]) [compound 445530]
[6]
  Percent inhibition of human Factor 11 mRNA levels: 83%
[8]
  Concentration: 177 mg/mL
  Viscosity: 25 cP

## ISIS 445513, (antisense GCAGCGGACGGCATTGGTGC; 6-8-6 MOE gapmer, further chemistry not given here)
[9]
  HCT: 50%
  RBC: 9.8
  WBC: 7
  hemoglobin: 15.0 g/dL
